Source: US12077503B2, “Substituted cyclic amides and their use as herbicides” (FMC CORPORATION, priority 2015, dated 2024)

Tests used:
Assay type in all cases: in vivo
[1] = test system: pigweed (Amaranthus retroflexus); assay: Test A preemergence; conditions: for Plant response rating, Pigweed: preemergence
Text: (§1) Seeds of plant species selected from barnyardgrass (Echinochloa crus-galli), Kochia (Kochia scoparia), ragweed (common ragweed, Ambrosia elatior), ryegrass, Italian (Italian ryegrass, Lolium multiflorum), crabgrass, large (Digitaria sanguinalis), giant foxtail (Setaria faberii), green foxtail (Setaria viridis), morningglory (Ipomoea spp.), pigweed (Amaranthus retroflexus), velvetleaf (Abutilon theophrasti), wheat (Triticum aestivum), and corn (Zea mays) were planted into a blend of loam soil and sand and treated preemergence with a directed soil spray using test chemicals formulated in anon-phytotoxic solvent mixture which included a surfactant.
(§2) At the same time, plants selected from these crop and weed species and also blackgrass (Alopecurus myosuroides), and Galium (catchweed bedstraw, Galium aparine) were planted in pots containing the same blend of loam soil and sand and treated with postemergence applications of test chemicals formulated in the same manner. Plants ranged in height from 2 to 10 cm and were in the one- to two-leaf stage for the postemergence treatment. Treated plants and untreated controls were maintained in a greenhouse for approximately 10 d, after which time all treated plants were compared to untreated controls and visually evaluated for injury. Plant response ratings, summarized in Table A, are based on a 0 to 100 scale where 0 is no effect and 100 is complete control. A dash (-) response means no test result.

[2] = test system: ragweed (common ragweed, Ambrosia elatior); assay: Test A preemergence; conditions: for Plant response rating, Ragweed: preemergence
Text: as §1, §2

Kochia (Kochia scoparia) [3] = assay: Test A preemergence
Text: as §1, §2

[4] = test system: ryegrass, Italian (Italian ryegrass, Lolium multiflorum); assay: Test A preemergence; conditions: for Plant response rating, Ryegrass, Italian: preemergence
Text: as §1, §2

[5] = test system: giant foxtail (Setaria faberii); assay: Test A preemergence
Text: as §1, §2

[6] = test system: barnyardgrass (Echinochloa crus-galli); assay: Test A preemergence
Text: as §1, §2

corn (Zea mays) = assay: Test A postemergence; conditions: postemergence
Text: as §1, §2

[7] = test system: blackgrass (Alopecurus myosuroides); assay: Test A postemergence; conditions: postemergence
Text: as §1, §2

[8] = test system: pigweed (Amaranthus retroflexus); assay: Test A postemergence; conditions: postemergence
Text: as §1, §2

[9] = test system: ragweed (common ragweed, Ambrosia elatior); assay: Test A postemergence; conditions: postemergence
Text: as §1, §2

[10] = test system: wheat (Triticum aestivum); assay: Test A postemergence; conditions: postemergence
Text: as §1, §2

Kochia (Kochia scoparia) [11] = assay: Test A postemergence; conditions: postemergence
Text: as §1, §2

[12] = test system: ryegrass, Italian (Italian ryegrass, Lolium multiflorum); assay: Test A postemergence; conditions: postemergence
Text: as §1, §2

[13] = test system: giant foxtail (Setaria faberii); assay: Test A postemergence; conditions: postemergence
Text: as §1, §2

[14] = test system: Galium (catchweed bedstraw, Galium aparine); assay: Test A postemergence; conditions: postemergence
Text: as §1, §2

[15] = test system: barnyardgrass (Echinochloa crus-galli); assay: Test A postemergence; conditions: postemergence
Text: as §1, §2

[16] = test system: ducksalad (Heteranthera limosa); assay: Test B flooded paddy test; conditions: Flood, 250 g ai/ha; 0 to 100 scale where 0 is no effect and 100 is complete control; 13 to 15 d
Outline: (§3)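 Plants at 2-leaf stage flooded to 3 cm above soil, with compounds applied directly to paddy water and that depth maintained. Plants kept in greenhouse 13–15 d. Visual rating versus controls on a 0 (no effect) to 100 (complete control) scale.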

[17] = test system: sedge, umbrella (small-flower umbrella sedge, Cyperus difformis); assay: Test B flooded paddy test; conditions: Flood, 250 g ai/ha; 0 to 100 scale where 0 is no effect and 100 is complete control; 13 to 15 d
Outline: as §3

rice (Oryra sativa) = assay: Test B flooded paddy test; conditions: Flood, 250 g ai/ha; 0 to 100 scale where 0 is no effect and 100 is complete control; 13 to 15 d
Outline: as §3

[18] = test system: barnyardgrass (Echinochloa crus-galli); assay: Test B flooded paddy test; conditions: Flood, 250 g ai/ha; 0 to 100 scale where 0 is no effect and 100 is complete control; 13 to 15 d
Outline: as §3

[19] = 125 g ai/ha, visual rating after approx. 10 d, 0 to 100 scale where 0 is no effect and 100 is complete control
[20] = 500 g ai/ha, 0 to 100 scale, 0 = no effect, 100 = complete control
[21] = 125 g ai/ha, Preemergence, visual injury after approximately 10 d, 0 to 100 scale where 0 is no effect and 100 is complete control
[22] = 500 g ai/ha, preemergence, 0 to 100 scale, 0 = no effect, 100 = complete control
[23] = 125 g ai/ha, visual injury after approximately 10 d, 0 to 100 scale (0 no effect, 100 complete control)
[24] = 500 g ai/ha, visual injury, 0 to 100 scale (0 no effect, 100 complete control), approx. 10 d
[25] = 125 g ai/ha, visual rating after approx. 10 d, 0 to 100 scale (0 no effect, 100 complete control)
[26] = 125 g ai/ha, 0 to 100 scale (0 no effect, 100 complete control)
[27] = Preemergence, 500 g ai/ha, visual injury approx. 10 d
[28] = 125 g ai/ha, preemergence, 0 to 100 scale (0 no effect, 100 complete control)
[29] = 125 g ai/ha, visual injury rating on 0 to 100 scale (0 no effect, 100 complete control), approx. 10 d
[30] = 500 g ai/ha, 0 to 100 scale, 0 no effect, 100 complete control

O=C1NCC(c2cccc(Br)c2)C1C(=O)Nc1ccc(F)cc1F (racemic) [Compound 687]
Plant response rating, Pigweed [1, 19]: 0 | Plant response rating, Pigweed [1, 20]: 30 | Plant response rating, Ragweed [2, 19]: 0 | Plant response rating, Ragweed [2, 20]: 0 | Plant response rating, Kochia (Kochia (Kochia scoparia) [3]; [21]): 0 | Plant response rating, Kochia (Kochia (Kochia scoparia) [3]; [22]): 40 | Plant response rating, Ryegrass, Italian [4, 19]: 0 | Plant response rating, Ryegrass, Italian [4, 20]: 20 | Plant response rating, Foxtail, Giant [5, 21]: 90 | Plant response rating, Foxtail, Giant [5, 22]: 90 | Plant response rating, Barnyardgrass [6, 21]: 90 | Plant response rating, Barnyardgrass [6, 22]: 90 | Plant response rating, Corn (corn (Zea mays); [23]): 0 | Plant response rating, Corn (corn (Zea mays); [24]): 70 | Plant response rating, Blackgrass [7, 25]: 30 | Plant response rating, Blackgrass [7, 24]: 40 | Plant response rating, Pigweed [8, 23]: 0 | Plant response rating, Pigweed [8, 24]: 20 | Plant response rating, Ragweed [9, 23]: 30 | Plant response rating, Ragweed [9, 24]: 30 | Plant response rating, Wheat [10, 23]: 0 | Plant response rating, Wheat [10, 24]: 60 | Plant response rating, Kochia (Kochia (Kochia scoparia) [11]; [23]): 0 | Plant response rating, Kochia (Kochia (Kochia scoparia) [11]; [24]): 30 | Plant response rating, Ryegrass, Italian [12, 23]: 20 | Plant response rating, Ryegrass, Italian [12, 24]: 40 | Plant response rating, Foxtail, Giant [13, 23]: 80 | Plant response rating, Foxtail, Giant [13, 24]: 90 | Plant response rating, Galium [14, 23]: 0 | Plant response rating, Galium [14, 24]: 20 | Plant response rating, Barnyardgrass [15, 25]: 90 | Plant response rating, Barnyardgrass [15, 24]: 90 | Plant response rating, Ducksalad [16]: 80 | Plant response rating, Sedge, Umbrella [17]: 0 | Plant response rating, Rice (rice (Oryra sativa)): 0 | Plant response rating, Barnyardgrass [18]: 35

CN1CC(c2ccc(Cl)cc2)C(C(=O)Nc2ccccc2S(C)(=O)=O)C1=O (stereo not drawn) [Compound 435]
Plant response rating, Pigweed [1, 26]: 60 | Pigweed plant response rating (0 to 100 scale, 0 is no effect, 100 is complete control) [1, 27]: 80 | Plant response rating, Ragweed [2, 26]: 20 | Ragweed plant response rating (0 to 100 scale, 0 is no effect, 100 is complete control) [2, 27]: 70 | Plant response rating, Kochia (Kochia (Kochia scoparia) [3]; [28]): 60 | Kochia plant response rating (0 to 100 scale, 0 is no effect, 100 is complete control) (Kochia (Kochia scoparia) [3]; [27]): 80 | Plant response rating, Ryegrass, Italian [4, 26]: 0 | Ryegrass, Italian plant response rating (0 to 100 scale, 0 is no effect, 100 is complete control) [4, 27]: 20 | Plant response rating, Foxtail, Giant [5, 28]: 90 | Foxtail, Giant plant response rating (0 to 100 scale, 0 is no effect, 100 is complete control) [5, 27]: 90 | Plant response rating, Barnyardgrass [6, 28]: 80 | Barnyardgrass plant response rating (0 to 100 scale, 0 is no effect, 100 is complete control) [6, 27]: 90 | Corn plant response rating (corn (Zea mays); [29]): 0 | Plant response rating, Corn (corn (Zea mays); [30]): 20 | Blackgrass plant response rating [7, 29]: 30 | Plant response rating, Blackgrass [7, 30]: 50 | Pigweed plant response rating [8, 29]: 20 | Plant response rating, Pigweed [8, 30]: 50 | Ragweed plant response rating [9, 29]: 40 | Plant response rating, Ragweed [9, 30]: 60 | Wheat plant response rating [10, 29]: 0 | Plant response rating, Wheat [10, 30]: 60 | Kochia plant response rating (Kochia (Kochia scoparia) [11]; [29]): 20 | Plant response rating, Kochia (Kochia (Kochia scoparia) [11]; [30]): 50 | Ryegrass, Italian plant response rating [12, 29]: 40 | Plant response rating, Ryegrass, Italian [12, 30]: 40 | Foxtail, Giant plant response rating [13, 29]: 80 | Plant response rating, Foxtail, Giant [13, 30]: 80 | Galium plant response rating [14, 29]: 50 | Plant response rating, Galium [14, 30]: 60 | Barnyardgrass plant response rating [15, 29]: 80 | Plant response rating, Barnyardgrass [15, 30]: 90 | Plant response rating, Ducksalad [16]: 90 | Plant response rating, Sedge, Umbrella [17]: 0 | Plant response rating, Rice (rice (Oryra sativa)): 0 | Plant response rating, Barnyardgrass [18]: 60
